Measured values reported in patent US5502035A, “N-terminus modified analogs of LHRH” (Tap Holdings Inc., priority 1994, dated 1996).
Non-standard residues stand in square brackets, D forms with d. Residues, ends and D or L forms follow the SMILES beside them. *: point of attachment. dPhe(4-Cl) = N[C@H](Cc1ccc(Cl)cc1)C(=O)O; d2Nal = N[C@H](Cc1ccc2ccccc2c1)C(=O)O; d(hCit) = NC(=O)NCCCC[C@@H](N)C(=O)O; Lys(iPr) = CC(C)NCCCC[C@H](N)C(=O)O; NMeY = CN[C@@H](Cc1ccc(O)cc1)C(=O)O; d3Pal = N[C@H](Cc1cccnc1)C(=O)O; Nicotinoyl = O=C(c1cccnc1)*; X1 = O=C([C@@H]1CCCO1)*; βAla = NCCC(=O)O

Target: T1, LHRH (Rattus norvegicus, UniProt P30969)
T1 construct: endogenous in cells; host or cells: rat pituitary cells (own knowledge of the cited Haviv 1989 method)
T1 sequence (P30969 1-327): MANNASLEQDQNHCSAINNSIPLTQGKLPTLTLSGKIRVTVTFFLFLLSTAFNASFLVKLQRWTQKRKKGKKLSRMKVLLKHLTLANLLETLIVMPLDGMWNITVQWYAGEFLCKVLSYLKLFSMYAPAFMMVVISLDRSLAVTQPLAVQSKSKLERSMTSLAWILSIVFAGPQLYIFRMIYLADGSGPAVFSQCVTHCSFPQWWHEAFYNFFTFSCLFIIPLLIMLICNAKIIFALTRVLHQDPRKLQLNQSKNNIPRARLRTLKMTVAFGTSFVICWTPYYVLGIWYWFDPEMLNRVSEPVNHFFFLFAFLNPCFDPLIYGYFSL
Assay: in vitro test for LHRH antagonist potency (pA2)
Format: cell-based
Details: negative logarithm of the antagonist concentration required to shift the response curve produced by the agonist leuprolide to two-fold higher concentration
Procedure, shortened: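 Rat LHRH receptor in vitro functional test; pA2 = negative log of the antagonist concentration shifting the leuprolide agonist response curve to two-fold higher concentration.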

| Structure (SMILES) | Kb [nM] |
| --- | --- |
| CC(C)C[C@H](NC(=O)[C@@H](CCCCNC(=O)c1cccnc1)NC(=O)[C@H](Cc1ccc(O)cc1)N(C)C(=O)[C@H](CO)NC(=O)[C@@H](Cc1cccnc1)NC(=O)[C@@H](Cc1ccc(Cl)cc1)NC(=O)[C@@H](Cc1ccc2ccccc2c1)NC(=O)CNC(=O)[C@@H]1CCCO1)C(=O)N[C@@H](CCCCNC(C)C)C(=O)N1CCC[C@H]1C(=O)N[C@@H](C)C(N)=O [Example 80, N-(S)-2-Tetrahydrofuroyl-Gly-D2Nal-D4ClPhe-D3Pal-Ser-NMeTyr-DLys(N-epsilon- Nicotinyl) -Leu-Lys(N-epsilon-Isopropyl)-Pro-AlaH2] | 0.0126 |
| CC(C)C[C@H](NC(=O)[C@@H](CCCCNC(=O)c1cccnc1)NC(=O)[C@H](Cc1ccc(O)cc1)N(C)C(=O)[C@H](CO)NC(=O)[C@@H](Cc1cccnc1)NC(=O)[C@@H](Cc1ccc(Cl)cc1)NC(=O)[C@H](Cc1ccc2ccccc2c1)NC(=O)CNC(=O)[C@@H]1CCCO1)C(=O)N[C@@H](CCCCNC(C)C)C(=O)N1CCC[C@H]1C(=O)N[C@H](C)C(N)=O [Example 81, (S)-2-Tetrahydrofuroyl-Gly-2Nal-D4ClPhe-D3Pal-Ser-NMeTyr-DLys(N-epsilon-Nicotinyl) -Leu-Lys(N-epsilon-Isopropyl)-Pro-DAlaNH2] | 0.891 |
| CC(C)C[C@H](NC(=O)[C@@H](CCCCNC(=O)c1cccnc1)NC(=O)[C@H](Cc1ccc(O)cc1)N(C)C(=O)[C@@H](CO)NC(=O)[C@@H](Cc1cccnc1)NC(=O)[C@@H](Cc1ccc(Cl)cc1)NC(=O)[C@@H](Cc1ccc2ccccc2c1)NC(=O)CNC(=O)[C@@H]1CCCO1)C(=O)N[C@@H](CCCCNC(C)C)C(=O)N1CCC[C@H]1C(=O)N[C@H](C)C(N)=O [Example 82, N (S)-2-Tetrahydrofuroyl-Gly-D2Nal-D4ClPhe-D3Pal-DSer-NMeTyr-DLys(N-epsilon-Nicotinyl) -Leu-Lys(N-epsilon-Isopropyl)-Pro-DAlaNH2] | 1.12 |
| CC(C)C[C@H](NC(=O)[C@@H](CCCCNC(=O)c1cccnc1)NC(=O)[C@H](Cc1ccc(O)cc1)N(C)C(=O)[C@H](CO)NC(=O)[C@H](Cc1cccnc1)NC(=O)[C@@H](Cc1ccc(Cl)cc1)NC(=O)[C@@H](Cc1ccc2ccccc2c1)NC(=O)CNC(=O)[C@@H]1CCCO1)C(=O)N[C@@H](CCCCNC(C)C)C(=O)N1CCC[C@H]1C(=O)N[C@H](C)C(N)=O [Example 83, N (S)-2-Tetrahydrofuroyl-Gly-D2Nal-D4ClPhe-3Pal-Ser-NMeTyr-DLys(N-epsilon-Nicotinyl) -Leu-Lys(N-epsilon-Isopropyl)-Pro-DAlaNH2] | 0.0112 |
| CC(C)C[C@H](NC(=O)[C@H](CCCCNC(=O)c1cccnc1)NC(=O)[C@H](Cc1ccc(O)cc1)N(C)C(=O)[C@H](CO)NC(=O)[C@@H](Cc1cccnc1)NC(=O)[C@@H](Cc1ccc(Cl)cc1)NC(=O)[C@@H](Cc1ccc2ccccc2c1)NC(=O)CNC(=O)[C@@H]1CCCO1)C(=O)N[C@@H](CCCCNC(C)C)C(=O)N1CCC[C@H]1C(=O)N[C@H](C)C(N)=O [Example 85, N (S)-2-Tetrahydrofuroyl-Gly-D2Nal-D4ClPhe-D3Pal-Ser-NMeTyr-Lys(N-epsilon-Nicotinyl) -Leu-Lys(N-epsilon-Isopropyl)-Pro-DAlaNH2] | 0.0112 |
| CC(C)C[C@H](NC(=O)[C@@H](CCCCNC(=O)c1cccnc1)NC(=O)[C@H](Cc1ccc(O)cc1)N(C)C(=O)[C@H](CO)NC(=O)[C@@H](Cc1cccnc1)NC(=O)[C@H](Cc1ccc(Cl)cc1)NC(=O)[C@@H](Cc1ccc2ccccc2c1)NC(=O)CNC(=O)[C@@H]1CCCO1)C(=O)N[C@@H](CCCCNC(C)C)C(=O)N1CCC[C@H]1C(=O)N[C@H](C)C(N)=O [Example 86, N (S)-2-Tetrahydrofuroyl-Gly-D2Nal-4ClPhe-D3Pal-Ser-NMeTyr-DLys(N-epsilon-Nicotinyl) -Leu-Lys(N-epsilon-Isopropyl)-Pro-DAlaNH2] | 0.141 |
| CC(C)C[C@@H](NC(=O)[C@@H](CCCCNC(=O)c1cccnc1)NC(=O)[C@H](Cc1ccc(O)cc1)N(C)C(=O)[C@H](CO)NC(=O)[C@@H](Cc1cccnc1)NC(=O)[C@@H](Cc1ccc(Cl)cc1)NC(=O)[C@@H](Cc1ccc2ccccc2c1)NC(=O)CNC(=O)[C@@H]1CCCO1)C(=O)N[C@@H](CCCCNC(C)C)C(=O)N1CCC[C@H]1C(=O)N[C@H](C)C(N)=O [Example 87, N (S)-2-Tetrahydrofuroyl-Gly-D2Nal-D4ClPhe-D3Pal-Ser-NMeTyr-DLys(N-epsilon-Nicotinyl) -DLeu-Lys(N-epsilon-Isopropyl)-Pro-DAlaNH2] | 0.269 |
| CC(C)C[C@H](NC(=O)[C@@H](CCCCNC(=O)c1cccnc1)NC(=O)[C@H](Cc1ccc(O)cc1)N(C)C(=O)[C@H](CO)NC(=O)[C@@H](Cc1cccnc1)NC(=O)[C@@H](Cc1ccc(Cl)cc1)NC(=O)[C@@H](Cc1ccc2ccccc2c1)NC(=O)CNC(=O)[C@@H]1CCCO1)C(=O)N[C@@H](CCCCNC(C)C)C(=O)N1CCC[C@@H]1C(=O)N[C@H](C)C(N)=O [Example 88, N (S)-2-Tetrahydrofuroyl-Gly-D2Nal-D4ClPhe-D3Pal-Ser-NMeTyr-DLys(N-epsilon-Nicotinyl) -Leu-Lys(N-epsilon-Isopropyl)-DPro-DAlaNH2] | 0.158 |
| CC(C)C[C@H](NC(=O)[C@@H](CCCCNC(=O)c1cccnc1)NC(=O)[C@H](Cc1ccc(O)cc1)N(C)C(=O)[C@H](CO)NC(=O)[C@@H](Cc1cccnc1)NC(=O)[C@@H](Cc1ccc(Cl)cc1)NC(=O)[C@@H](Cc1ccc2ccccc2c1)NC(=O)CNC(=O)[C@@H]1CCCO1)C(=O)N[C@H](CCCCNC(C)C)C(=O)N1CCC[C@H]1C(=O)N[C@H](C)C(N)=O [Example 89, N (S)-2-Tetrahydrofuroyl-Gly-D2Nal-D4ClPhe-D3Pal-Ser-NMeTyr-DLys(N-epsilon-Nicotinyl) -Leu-DLys(N-epsilon-Isopropyl)-Pro-DAlaNH2] | 0.132 |
| CC(C)C[C@H](NC(=O)[C@@H](CCCCNC(=O)c1cccnc1)NC(=O)[C@@H](Cc1ccc(O)cc1)N(C)C(=O)[C@H](CO)NC(=O)[C@@H](Cc1cccnc1)NC(=O)[C@@H](Cc1ccc(Cl)cc1)NC(=O)[C@@H](Cc1ccc2ccccc2c1)NC(=O)CNC(=O)[C@@H]1CCCO1)C(=O)N[C@@H](CCCCNC(C)C)C(=O)N1CCC[C@H]1C(=O)N[C@H](C)C(N)=O [Example 90, N (S)-2-Tetrahydrofuroyl-Gly-D2Nal-D4ClPhe-D3pal-Ser-DNMeTyr-DLys(N-epsilon-Nicotinyl) -Leu-Lys(N-epsilon-Isopropyl)-pro-DAlaNH2] | 0.457 |
| CC(C)C[C@H](NC(=O)[C@@H](CCCCNC(N)=O)NC(=O)[C@H](Cc1ccc(O)cc1)N(C)C(=O)[C@H](CO)NC(=O)[C@@H](Cc1cccnc1)NC(=O)[C@@H](Cc1ccc(Cl)cc1)NC(=O)[C@@H](Cc1ccc2ccccc2c1)NC(=O)CNC(=O)[C@@H]1CCCO1)C(=O)N[C@@H](CCCCNC(C)C)C(=O)N1CCC[C@H]1C(=O)N[C@H](C)C(N)=O [Example 92, N (S)-2-Tetrahydrofuroyl-Gly-D2Nal-D4ClPhe-D3Pal-Ser-NMeTyr-DHcit-Leu-Lys(N- epsilon-Isopropyl) -Pro-DAlaNH2] (X1-G[d2Nal][dPhe(4-Cl)][d3Pal]S[NMeY][d(hCit)]L[Lys(iPr)]P[dA]-NH2) | 0.0105 |
| CC(C)C[C@H](NC(=O)[C@@H](CCCCNC(N)=O)NC(=O)[C@H](Cc1ccc(O)cc1)NC(=O)[C@H](CO)NC(=O)[C@@H](Cc1cccnc1)NC(=O)[C@@H](Cc1ccc(Cl)cc1)NC(=O)[C@@H](Cc1ccc2ccccc2c1)NC(=O)CNC(=O)[C@@H]1CCCO1)C(=O)N[C@@H](CCCCNC(C)C)C(=O)N1CCC[C@H]1C(=O)N[C@H](C)C(N)=O [Example 93, N (S)-2-Tetrahydrofuroyl-Gly-D2Nal-D4ClPhe-D3Pal-Ser-Tyr-DHcit-Leu-Lys(N-epsilon-Isopropyl)-Pro-DAlaNH2] (X1-G[d2Nal][dPhe(4-Cl)][d3Pal]SY[d(hCit)]L[Lys(iPr)]P[dA]-NH2) | 0.00589 |
| CC(C)C[C@H](NC(=O)[C@@H](CCCCNC(=O)c1cccnc1)NC(=O)[C@H](Cc1ccc(O)cc1)N(C)C(=O)[C@H](CO)NC(=O)[C@@H](Cc1cccnc1)NC(=O)[C@@H](Cc1ccccc1)NC(=O)[C@@H](Cc1ccc2ccccc2c1)NC(=O)CNC(=O)[C@@H]1CCCO1)C(=O)N[C@@H](CCCCNC(C)C)C(=O)N1CCC[C@H]1C(=O)N[C@H](C)C(N)=O [Example 94, N (S)-2-Tetrahydrofuroyl-Gly-D2Nal-DPhe-D3Pal-Ser-NMeTyr-DLys(Nic)-Leu-Lys(N-epsilon-Isopropyl)-Pro-DAlaNH2] (X1-G[d2Nal][dF][d3Pal]S[NMeY][dK](Nicotinoyl)L[Lys(iPr)]P[dA]-NH2) | 0.00832 |
| CC(C)C[C@H](NC(=O)[C@@H](CCCCNC(N)=O)NC(=O)[C@H](Cc1ccc(O)cc1)NC(=O)[C@H](CO)NC(=O)[C@@H](Cc1cccnc1)NC(=O)[C@@H](Cc1ccc(Cl)cc1)NC(=O)[C@@H](Cc1ccc2ccccc2c1)NC(=O)CNC(=O)[C@@H]1CCCO1)C(=O)N[C@@H](CCCNC(=N)N)C(=O)N1CCC[C@H]1C(=O)N[C@H](C)C(N)=O [Example 95, N-(S)-2-Tetrahydrofuroyl-Gly-D2Nal-D4ClPhe-D3Pal-Ser-Tyr-DHcit-Leu-Arg-Pro- DAlaNH2] (X1-G[d2Nal][dPhe(4-Cl)][d3Pal]SY[d(hCit)]LRP[dA]-NH2) | 0.00759 |
| CC(C)C[C@H](NC(=O)[C@@H](CCCCNC(=O)c1cccnc1)NC(=O)[C@H](Cc1ccc(O)cc1)N(C)C(=O)[C@H](CO)NC(=O)[C@@H](Cc1cccnc1)NC(=O)[C@@H](Cc1ccc(Cl)cc1)NC(=O)[C@@H](Cc1ccc2ccccc2c1)NC(=O)CCNC(=O)[C@@H]1CCCO1)C(=O)N[C@@H](CCCCNC(C)C)C(=O)N1CCC[C@H]1C(=O)N[C@H](C)C(N)=O [Example 96, N (S)-2-Tetrahydrofuroyl-Bala-D2Nal-D4ClPhe-D3Pal-Ser-NMeTyr-DLys(Nic)-Leu-Lys(Isp)-Pro-DAlaNH2] ({X1-βAla}-[d2Nal][dPhe(4-Cl)][d3Pal]S[NMeY][dK](Nicotinoyl)L[Lys(iPr)]P[dA]-NH2) | 0.0275 |
